Test results from BindingDB's records for doi:10.1021/jm970096g (National Cancer Institute-Frederick, 1998).

Columns and labels:
[1] = Cross Resistance (antiviral activity) with L100I (Non nucleoside reverse transcriptase inhibitor) resistant HIV isolate from cytopathic cell killing assay
[2] = Cross Resistance (antiviral activity) with 4xAZT/Y181C (Non nucleoside reverse transcriptase inhibitor) resistant HIV isolate from cytopathic cell killing assay
[3] = Cross Resistance (antiviral activity) with V106A (Non nucleoside reverse transcriptase inhibitor) resistant HIV isolate from cytopathic cell killing assay
[4] = Cross Resistance (antiviral activity) with NL4-3(WT) NNRTI (Non nucleoside reverse transcriptase inhibitor) resistant HIV isolate from cytopathic cell killing assay
[5] = Cross Resistance (antiviral activity) with 4xAZT (nucleoside reverse transcriptase inhibitor) resistant HIV isolate from cytopathic cell killing assay
[6] = Cross Resistance (antiviral activity) with Y181C (Non nucleoside reverse transcriptase inhibitor) resistant HIV isolate from cytopathic cell killing assay
[7] = Cross Resistance (antiviral activity) with K101E (Non nucleoside reverse transcriptase inhibitor) resistant HIV isolate from cytopathic cell killing assay
[8] = Cross Resistance (antiviral activity) with 4xAZT/L100I (Non nucleoside reverse transcriptase inhibitor) resistant HIV isolate from cytopathic cell killing assay
[9] = Cross Resistance (antiviral activity) with V108I (Non nucleoside reverse transcriptase inhibitor) resistant HIV isolate v
[10] = Cross Resistance (antiviral activity) with V179D (Non nucleoside reverse transcriptase inhibitor) resistant HIV isolate from cytopathic cell killing assay
[11] = Cross Resistance (antiviral activity) with L74V (nucleoside reverse transcriptase inhibitor) resistant HIV isolate from cytopathic cell killing assay
[12] = Cross Resistance (antiviral activity) with Y188C (Non nucleoside reverse transcriptase inhibitor) resistant HIV isolate from cytopathic cell killing assay
[13] = Cross Resistance (antiviral activity) with A98G (Non nucleoside reverse transcriptase inhibitor) resistant HIV isolate from cytopathic cell killing assay
[14] = Cross Resistance (antiviral activity) with K103N (Non nucleoside reverse transcriptase inhibitor) resistant HIV isolate from cytopathic cell killing assay
[15] = Cross Resistance (antiviral activity) with V108I (Non nucleoside reverse transcriptase inhibitor) resistant HIV isolate from cytopathic cell killing assay
[16] = Cross Resistance (antiviral activity) with Y181C (Non nucleoside reverse transcriptase inhibitor) resistant HIV isolate from cytopathic cell killing assay; remark: listed apart in the source
[17] = Cross Resistance (antiviral activity) with K101E (Non nucleoside reverse transcriptase inhibitor) resistant HIV isolate from cytopathic cell killing assay; remark: listed apart in the source
[18] = Cross Resistance (antiviral activity) with A98G (Non nucleoside reverse transcriptase inhibitor) resistant HIV isolate from cytopathic cell killing assay; remark: listed apart in the source
[19] = Cross Resistance (antiviral activity)of the compound with 4xAZT/Y181C (Non nucleoside reverse transcriptase inhibitor) resistant HIV isolate from cytopathic cell killing assay

| SMILES | EC50 [1] | EC50 [2] | EC50 [3] | EC50 [4] | EC50 [5] | EC50 [6] | EC50 [7] | EC50 [8] | EC50 [9] | EC50 [10] | EC50 [11] | EC50 [12] | EC50 [13] | EC50 [14] | EC50 [15] | EC50 [16] | EC50 [17] | EC50 [18] | EC50 [19] |
| --- | --- | --- | --- | --- | --- | --- | --- | --- | --- | --- | --- | --- | --- | --- | --- | --- | --- | --- | --- |
| Cc1cccc2c1nc(-c1c(F)cccc1F)n2Cc1c(F)cccc1F | 0.3 µM | 3.5 µM | 20 µM | 0.5 µM | 0.1 µM | 6 µM | 16.7 µM | 0.2 µM | 2.8 µM | 0.5 µM | 0.1 µM | 2.3 µM | 1.4 µM | 8.1 µM |  |  |  |  |  |
| Fc1cccc(F)c1Cn1c(-c2c(F)cccc2F)nc2ccccc21 |  | > 20 µM | > 20 µM | 1.85 µM | 0.27 µM |  |  | 0.84 µM |  | 2.3 µM | 0.46 µM | 11.7 µM | 4.75 µM | 12.9 µM | 10.4 µM | 15.2 µM | > 20 µM |  |  |
| Fc1cccc(F)c1C1SCc2nc3ccccc3n21 (centres undefined) [3-(2,6-difluorophenyl)-4-thia-2,7-diazatricyclo[6.4.0.0^{2,6}]dodeca-1(12),6,8,10-tetraene] | 12.2 µM | 14.5 µM | > 20 µM | 1.7 µM | 1.5 µM | 16.3 µM |  | 1.7 µM |  | 3.1 µM | 0.7 µM |  |  | > 20 µM | 9.7 µM |  | > 20 µM | 17.7 µM |  |
| CC1Cn2c(=O)[nH]c3cccc(c32)CN1 (stereo not drawn) [(S-(+))-8-Methyl-6,7,8,9-tetrahydro-2H-2,7,9a-triaza-benzo[cd]azulen-1-one] | 17.4 µM |  | 12.5 µM | 0.3 µM | 0.3 µM | 4.2 µM |  | > 17.4 µM |  | 6.2 µM | 0.2 µM | > 17.4 µM | 11 µM | 17.4 µM | 2.4 µM |  | 17.4 µM |  | 2 µM |
